Data from US6750247B2, “Sponge-derived terpenoids and methods of use” (Galileo Laboratories, Inc., priority 2001, dated 2004).
Counter-ions that a name gives are not always drawn. Blank lines part the entries; values can stand above or below the molecule they belong to.

Assays:
neonatal cardiomyocytes = experiment: Myocyte calcium-contractility assay (cardiomyocyte beating anoxia assay); format: cell-based, rat; conditions: 16 hr anoxia, 2 hr reoxygenation; for Percent Activity: at dose for max. activity, Fluo-4 fluorescence
Procedure: 10× Heart Dissection Solution (HDS) contains the following components (g/l) in tissue culture grade water: NaCl, 68; HEPES, 47.6; NaH2PO4, 2; Glucose, 10; KCl, 4; MgSO4, 1, pH adjusted to 7.4. Prior to filter sterilization of diluted (1× HDS) solution, 10 mg phenol red was added to each 500 milliliters of medium. Transferrin and Bovine Insulin were obtained from Life Technologies, and resuspended at a concentration of 4 mg/ml in tissue culture grade water. DMEM-F12- DMEM/F12, powder, 1:1 containing glutamine and pyridoxine hydrochloride was purchased from Life Technologies. To one liter equivalent of the powder was added 2.43 g of sodium bicarbonate and 10 ml of 100× Penicillin/Streptomycin in 950 ml of tissue culture grade water with stirring. The pH was adjusted to 7.2 with 1M HCl and volume was adjusted to 1 liter. The solution was filter sterilized then 2.5 ml of 4 mg/ml Transferrin, 250 μl 4 mg/ml Insulin and 30.7 mg of bromodeoxyuridine were added. DMEM-F12 was also prepared with 4% FBS for pre-coating the tissue culture plates and initial suspension of the cardiomyocyte pellet. Collagenase solution-49 mg of collagenase was resuspended in 120 ml 1× HDS.
Tissue culture plasticware was pre-coated with DMEM-F12-4% FBS by incubating 50 μl per well of a 96-well plate. Two-day old rat pups were removed from their mothers and placed in a sterile container. Pups were dipped quickly into 70% alcohol, then decapitated and the body was placed in an empty sterile tissue culture dish. An incision was made starting at the neck and progressing towards the belly, cutting through the sternum. The heart was removed and placed in a tissue culture dishes containing 1× HDS. The atria were trimmed, and the remaining ventricles were placed into a separate tissue culture dish containing 1× HDS, where they were sectioned into 3-4 pieces each. Ventricles were then transferred to a sterile 250 ml glass flask and the 1× HDS was removed. Twenty milliliters of pre-warmed collagenase solution were added to the ventricles, followed by incubation at 37° C. with shaking. After 30 minutes, the collagenase solution was removed and replaced with 20 ml fresh pre-warmed collagenase. Incubation was continued for an additional 20 minutes. At the end of the incubation, any tissue chunks were allowed to settle prior to removing the collagenase (containing the isolated cardiomyocytes) from the disrupted tissue pieces. The isolated myocytes were added to a 50 ml Falcon tube containing 2 ml Fetal Bovine Serum (FBS). The remaining tissue pieces were subjected to a second digestion by adding 20 ml fresh pre-warmed collagenase and incubating as above for 20 minutes. This second digest was then centrifuged at 1000 rpm for 10 minutes in a GH 3.8 A rotor in an Allegra 6 Centrifuge (Beckman Instruments, Fullerton, Calif.). The resulting supernatant was discarded, and the cell pellet was suspended with 4 ml FBS. The resulting cell suspension was placed in the incubator at 37° C. This step was repeated several additional times to harvest additional material.
Percoll gradients were prepared by adding 2.5 ml of 10× HDS to 22.5 ml of Percoll (Life Technologies) with mixing (Percoll Stock). Top Gradient solution (11 ml Percoll Stock and 14 ml 1× HDS) and Bottom Gradient solution (13 ml Percoll Stock and 7 ml 1× HDS) were prepared. Four milliliters of the Top Gradient solution were transferred into 6×15 ml sterile Falcon tubes. Three milliliters of the Bottom Gradient solution were placed in each tube by inserting a serological pipette to the bottom of the tube and slowly adding the liquid.
All the digests (5 in total) were pooled in one 50 ml Falcon tube and centrifuged on a tabletop Allegra 6 Centrifuge (Beckman Instruments, Fullerton, Calif.) using a GH 3.8 A rotor at 1000 rpm for 10 minutes. The supernatant was discarded, and the cell pellet was resuspended in 12 ml of 1× HDS. Two milliliters of the cell suspension was added to the top of each gradient. […]

[1] = test system: primary hippocampal neuronal cells; experiment: Hippocampal anoxia-reoxygenation cell death assay; format: cell-based, mice; conditions: for Dose for Max. Activity / Percent Activity: 5 hr hypoxia, 20-24 hr reoxygenation; for Percent Activity: at dose for max. activity, live neurons by Cell Tracker Green; for cell viability: compared to hypoxia-reoxygenated cells
Procedure: Neurobasal medium (Life Technologies, Rockville, Md.) with 1× B27 supplement (Life Technologies), […], 25 μM L-glutaxnic acid, and 1× Penicillin/Streptomycin was prepared fresh prior to use. Hank's Basic Salt Solution (HBSS, Ca/Mg-free) was prepared by preparing 1× Hanks CMF (Gibco) supplemented with HEPES (10 mM, pH 7.3), sodium bicarbonate (0.35%), 1× Penicillin/Streptomycin, and 1 mM pyruvate. Poly-D-lysine (Sigma, St. Louis, Mo.) was prepared by filtering a 50 μg/ml solution through 0.2 μm filter tubes. Sigmacote (Sigma, St. Louis, Mo.). Plastic Culture Flasks (T75 cm^2) or 12-well cell culture plates were then treated with Poly-D-Lysine (Sigma, St. Louis, Mo.).
Pregnant female mice (E18-E19) were euthanized with CO2 prior to removal of the uterus, which was then placed in a sterile plastic petri dish. The embryos were removed from the sac, and the embryonic brains removed and immersed in cold (4° C.) Hepes Buffered Salt Solution (HBSS; Ca/Mg free; Life Technologies) in a small petri dish. Hippocampi were then removed from the brains under a dissecting microscope and were placed on a paraffin-covered dish. The meninges were stripped away and the dissected hippocampi were collected in a small petri dish in HBSS. The hippocampi were transferred to a 15-ml centrifuge tube (normally 10-12 brains per tube) filled with HBSS. The tube containing the brains was centrifuged at 1000 rpm for 2 minutes in a GH 3.8 A rotor in an Allegra Centrifuge (Beckman Instruments, Fullerton, Calif.). The supernatant was removed, 2 ml of HBSS was added to the hippocampi in the tube, and the resulting suspension was triturated 2 times each with long-tipped siliconized glass pipettes having progressively smaller apertures, starting with a pipette with a standard size opening (approximately 1.0 mm diameter), following with one having an aperture of half standard size (approximately 0.5 mm diameter), then with one having an aperture about one-half that size (0.25 mm diameter). The suspension was then centrifuged again at 1000 rpm for 2 min in a tabletop centrifuge, the supernatant was discarded, and 2 ml of Neurobasal/B27i (with antibiotics) was added to the tube. The trituration procedure described above was then repeated on this suspension.
The density of cells was determined on a small aliquot of cells using standard counting procedures and correcting for cell viability by trypan blue stain exclusion. Using this procedure, the expected yield is 3×10^5-6×10^5 cells/brain. Cells were then added to PDL-coated 12 well plates, flasks or MetTek dishes in Neurobasal/B27I at a density of about 1.5×10^6 cells (T75 flask) or about 100,000 cells/well of a 12-well plate. Plated cells were incubated at 37° C. with 5% CO2 in air atmosphere. Media was renewed after 3-4 days by replacing half of it with fresh Neurobasal/B27m medium, containing 5 μM cytosine arabinoside (AraC). Seven to eight days from the initial culture, the media was renewed again, by removing one-half or it and replacing with an equal amount of fresh Neurobasal/B27m medium (without Ara-C).
This assay was used to induce ischemia by anoxia-reoxygenation in cultured hippocampal neuronal cells. Test compounds were added to assess potency and efficacy against ischemia-induced neuronal cell injury and cell death.
Neurobasal media, NoG neurobasal media, B27 supplement and B27 Supplement minus AO were obtained from Life Technologies. Neurobasal/B27 medium was prepared with 2× B27 minus AO supplement, 0.5 mM L-glutamine and 0.25× penicillin/streptomycin. Cell Tracker Green was obtained from Molecular Probes and a fresh 5 μM solution was prepared from 10 mM stock just before use. NoG-Neurobasal contains NoG neurobasal medium plus 0.5 mM glucose, 0.1 mM L-glutamine and 0.25× Penicillin/Streptomycin. Primary hippocampal neuronal cells were prepared according to the methods described above and were cultured in poly-D-lysine coated 12 well plates for 10-11 days prior to use. […]

[2] = molecular target: T1, 15-human lipoxygenase (15-HLO) (Homo sapiens, UniProt P16050); experiment: 15-human lipoxygenase (15-HLO) inhibition assay; format: biochemical; conditions: 3 μM linoleic acid, pH 7.5, approx. 22° C.
T1 construct: made in house
T1 sequence (P16050 1-662): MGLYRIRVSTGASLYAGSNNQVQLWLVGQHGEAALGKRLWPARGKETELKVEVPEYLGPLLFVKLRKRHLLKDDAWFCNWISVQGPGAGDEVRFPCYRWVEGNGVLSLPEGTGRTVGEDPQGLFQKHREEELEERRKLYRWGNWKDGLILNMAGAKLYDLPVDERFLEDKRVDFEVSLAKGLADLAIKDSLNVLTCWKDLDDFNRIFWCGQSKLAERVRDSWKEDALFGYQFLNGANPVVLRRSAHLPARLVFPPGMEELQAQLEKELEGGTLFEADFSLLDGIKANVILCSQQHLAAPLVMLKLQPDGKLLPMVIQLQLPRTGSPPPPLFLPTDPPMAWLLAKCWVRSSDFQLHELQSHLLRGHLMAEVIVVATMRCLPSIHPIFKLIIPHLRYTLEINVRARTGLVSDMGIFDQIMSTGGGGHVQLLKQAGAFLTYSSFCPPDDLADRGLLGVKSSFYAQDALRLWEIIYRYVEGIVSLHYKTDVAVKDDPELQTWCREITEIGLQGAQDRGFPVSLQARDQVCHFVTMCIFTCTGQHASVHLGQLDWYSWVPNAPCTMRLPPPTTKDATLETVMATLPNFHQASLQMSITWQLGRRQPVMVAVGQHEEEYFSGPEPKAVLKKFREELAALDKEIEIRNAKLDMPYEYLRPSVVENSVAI
Procedure: 15-human lipoxygenase (15-HLO) was expressed and purified as described by Holman et al., J. Am. Chem. Soc. […] 15-HLO enzyme activity was determined by direct measurement of the product formation of a 3 μM linoleic acid solution by monitoring the increase of absorbance at 234 nm in 25 mM Hepes (pH 7.5), 0.2% (g/L) cholic acid. All reactions were performed in 2 ml of buffer (approx. 200 nM 15-HLO) under constant stirring at approximately 22° C. IC50 values were determined by measuring the enzymatic rate at a variety of inhibitor concentrations (depending upon inhibitor potency) and plotting their corresponding values versus inhibitor concentration. The corresponding data was fit to a simple saturation curve and the inhibitor concentration at 50% activity was determined. The subject inhibitors used in the assay were dissolved in MeOH at a concentration of approximately 25 mg/ml.

Compound: CC(C)=CCC/C(C)=C/CCC1=CC(=O)OC1O (racemic) [Dictyodendrillin B (11), 4-(4,8-dimethyl-nona-3,7-dienyl)-5-hydroxy-5H-furan-2-one]
- Percent Activity (neonatal cardiomyocytes): No activity at 100 μg/mL
- Dose for Max. Activity [1]: 0.1 µg/mL
- Percent Activity [1]: 56%
- cell viability [1]: increased cell viability

Compound: CC(C)=CCC/C(C)=C/CCC1=CC(O)OC1=O (racemic) [Dictyodendrillin C (12), 3-(4,8-dimethyl-nona-3,7-dienyl)-5-hydroxy-5H-furan-2-one]
- Dose for Max. Activity (neonatal cardiomyocytes): 100 µg/mL
- cell viability (neonatal cardiomyocytes): increased cell viability
- Percent Activity (neonatal cardiomyocytes): 46%

Compound: CC(C)=CCC[C@@]1(C)CCC[C@]2(C)[C@@H](Cc3cc(C(=O)O)ccc3O)C(C)=CC[C@@H]12 [(−)-jaspic acid (4), 4-hydroxy-3-[2,5,8a-trimethyl-5-(4-methyl-pent-3-enyl)-1,4,4a,5,6,7,8,8a-octahydro-naphthalen-1-ylmethyl]-benzoic acid]
- Dose for Max. Activity (neonatal cardiomyocytes): 3 µg/mL
- cell viability (neonatal cardiomyocytes): increased cell viability
- Percent Activity (neonatal cardiomyocytes): 59%
- Dose for Max. Activity [1]: 1 µg/mL
- Percent Activity [1]: 63%
- cell viability [1]: increased cell viability

Compound: CC1CCC2C(=CCCC2(C)C)C1(C)CCC(CO)CCCc1ccoc1 (centres unmarked) [Halisulfate 7 alcohol (8), 5-furan-3-yl-2-[2-(1,2,5,5-tetramethyl-1,2,3,4,4a,5,6,7-octahydro-naphthalen-1-yl)-ethyl]-pentan-1-ol]
- Percent Activity (neonatal cardiomyocytes): No activity at 75 μg/mL
- Percent Activity [1]: No activity at 10 μg/mL

Compound: CC(=O)O[C@@H]1OC=C2[C@@H](OC(C)=O)C[C@H]3[C@]4(C)CC[C@@H]5C([C@H](C)CCC5(C)C)[C@H]4C[C@@H](O)[C@]3(C)[C@H]21 (some centres unmarked) [Heteronemin (13), 24,25-epoxy-17(24)-scalarene-12-ol-16,25-diacetate]
- Percent Activity (neonatal cardiomyocytes): No activity at 100 μg/mL
- Dose for Max. Activity [1]: 0.1 µg/mL
- Percent Activity [1]: 21%
- cell viability [1]: increased cell viability

- IC50 [2]: 400 nM
Compound: CCCCCCCC/C=C\CCCCCCCCOS(=O)(=O)O [oleyl sulfate, reference compound]
